# Results: patent US20100227859A1, “TRICYCLIC COMPOUNDS AS MATRIX METALLOPROTEINASE INHIBITORS” (priority 2007, published 2010)
# Biological target: purified human MMP-12 enzyme (Homo sapiens, UniProt P39900)
# Assay: MMP-12 FRET assay
# Type: biochemical
# Details: substrate 20 μM, room temperature
# Description: Compounds according to the present teachings were tested in an MMP-12 FRET assay as follows. To each well of black polystyrene 96-well plate was added assay buffer (50 mM HEPES (pH 7.4), 100 mM NaCl, 5 mM CaCl2 and 0.005% Brij-35 (Polyoxyethyleneglycol dodecyl ether, Pierce cat#20150), purified human MMP-12 enzyme, and varied concentrations of test compounds (prepared by serial dilution of a stock solution in 100% DMSO). The plates were incubated at room temperature for 30 minutes. The enzymatic reactions were initiated by addition of a substrate, MCA-Pro-Leu-Gly-Leu-Dpa(DNP)-Ala-Arg, containing a fluorescent group (7-methoxycoumarin, MCA) and a 2,4-dinitrophenyl group (DNP), to a final concentration of 20 μM. The final DMSO concentration in the assay was 10%. The reaction was monitored for 30 minutes at room temperature and the initial rate of the cleavage reaction was determined using a fluorescence plate reader (λex: 325 nm, λem: 395 nm). Plots of the inhibitor concentration vs. the initial cleavage rate were fit to the following equation: y=Vmax*(1−(x^n/(K^n+x^n))), whereby x=inhibitor concentration, y=initial rate, Vmax=initial rate in the absence of inhibitor, n=slope factor, and K=IC50 for the inhibition curve.
# Chain of purified human MMP-12 enzyme (P39900 106-470): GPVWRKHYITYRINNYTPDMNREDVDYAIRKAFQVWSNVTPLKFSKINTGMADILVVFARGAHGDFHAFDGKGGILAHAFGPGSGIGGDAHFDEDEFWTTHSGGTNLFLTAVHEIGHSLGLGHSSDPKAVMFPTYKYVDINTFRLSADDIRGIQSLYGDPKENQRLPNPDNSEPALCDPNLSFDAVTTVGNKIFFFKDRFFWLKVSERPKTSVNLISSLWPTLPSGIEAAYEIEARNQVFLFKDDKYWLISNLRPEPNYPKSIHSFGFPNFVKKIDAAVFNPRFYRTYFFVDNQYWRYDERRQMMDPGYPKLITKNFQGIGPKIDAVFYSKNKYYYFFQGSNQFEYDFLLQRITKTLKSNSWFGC
row,Structure (SMILES),IC50 [nM]
1,"Cc1nc(C)c(-c2ccc3c(c2)oc2cc(S(=O)(=O)N[C@H](C(=O)O)C(C)C)ccc23)s1 [Compound 230, (S)-2-(7-(2,4-dimethylthiazol-5-yl)dibenzo[b,d]furan-3-sulfonamido)-3-methylbutanoic acid]",< 1.5
2,"CC(C)[C@H](NS(=O)(=O)c1ccc2c(c1)sc1ccc(-c3cn[nH]c3)cc12)C(=O)O [Compound 45, (S)-2-(8-(1H-pyrazol-4-yl)dibenzo[b,d]thiophene-3-sulfonamido)-3-methylbutanoic acid]",5.5
3,"CC(C)[C@@H](NS(=O)(=O)c1ccc2oc3cc(-c4ccc[nH]4)ccc3c2c1)C(=O)O [Compound 116, (R)-2-(7-(1H-pyrrol-2-yl)dibenzo[b,d]furan-2-sulfonamido)-3-methylbutanoic acid]",3.1
4,"CCc1ccc(-c2cc(-c3ccc4c(c3)oc3cc(S(=O)(=O)N[C@H](C(=O)O)C(C)C)ccc34)sc2CC)s1 [Compound 166, (S)-2-(7-(2′,5-diethyl-2,3′-bithiophen-5′-yl)dibenzo[b,d]furan-3-sulfonamido)-3-methylbutanoic acid]",93
5,"CC(C)[C@@H](NS(=O)(=O)c1ccc2oc3cc(-c4nc5ccccc5o4)ccc3c2c1)C(=O)O [Compound 294, (R)-2-(7-(benzo[d]oxazol-2-yl)dibenzo[b,d]furan-2-sulfonamido)-3-methylbutanoic acid]",9.5
6,"CCCc1ccc(-c2ccc3c(c2)oc2cc(S(=O)(=O)N[C@H](C(=O)O)C(C)C)ccc23)s1 [Compound 232, (S)-3-methyl-2-(7-(5-propylthiophen-2-yl)dibenzo[b,d]furan-3-sulfonamido)butanoic acid]",< 1.5
7,"CC(C)[C@H](NS(=O)(=O)c1ccc2c(c1)sc1ccc(-c3ccco3)cc12)C(=O)O [Compound 53, (S)-2-(8-(furan-2-yl)dibenzo[b,d]thiophene-3-sulfonamido)-3-methylbutanoic acid]",43
8,"CC(C)[C@H](NS(=O)(=O)c1ccc2c(c1)oc1ccc(/C=C/C3CCCCC3)cc12)C(=O)O [Compound 35, (S,E)-2-(8-(2-cyclohexylvinyl)dibenzo[b,d]furan-3-sulfonamido)-3-methylbutanoic acid]",< 1.5
9,"CC(C)[C@H](NS(=O)(=O)c1ccc2c(c1)oc1cc(-c3noc(C4CC4)n3)ccc12)C(=O)O [Compound 187, (S)-2-(7-(5-cyclopropyl-1,2,4-oxadiazol-3-yl)dibenzo[b,d]furan-3-sulfonamido)-3-methylbutanoic acid]",5.5
10,"Cc1nc(-c2ccc(C(F)(F)F)cc2)sc1-c1ccc2oc3cc(S(=O)(=O)N[C@H](C(=O)O)C(C)C)ccc3c2c1 [Compound 164, (S)-3-methyl-2-(8-(4-methyl-2-(4-(trifluoromethyl)phenyl)thiazol-5-yl)dibenzo[b,d]furan-3-sulfonamido)butanoic acid]",12.3
11,"CC(C)[C@@H](NS(=O)(=O)c1ccc2oc3cc(/C=C/C4CCCCC4)ccc3c2c1)C(=O)O [Compound 104, (R,E)-2-(7-(2-cyclohexylvinyl)dibenzo[b,d]furan-2-sulfonamido)-3-methylbutanoic acid]",59
12,"Cc1nc(-c2ccc3oc4cc(S(=O)(=O)N[C@H](C(=O)O)C(C)C)ccc4c3c2)sc1C [Compound 305, (S)-2-(8-(4,5-dimethylthiazol-2-yl)dibenzo[b,d]furan-3-sulfonamido)-3-methylbutanoic acid]",1.6
13,"CC(C)[C@@H](NS(=O)(=O)c1ccc2oc3cc(-c4noc(C(C)(C)C)n4)ccc3c2c1)C(=O)O [Compound 133, (R)-2-(7-(5-tert-butyl-1,2,4-oxadiazol-3-yl)dibenzo[b,d]furan-2-sulfonamido)-3-methylbutanoic acid]",8
14,"CC(C)[C@@H](NS(=O)(=O)c1ccc2oc3cc(-c4noc(CC5CCCC5)n4)ccc3c2c1)C(=O)O [Compound 191, (R)-2-(7-(5-(cyclopentylmethyl)-1,2,4-oxadiazol-3-yl)dibenzo[b,d]furan-2-sulfonamido)-3-methylbutanoic acid]",3.3
15,"CCCn1cc(-c2ccc3sc4cc(S(=O)(=O)N[C@H](C(=O)O)C(C)C)ccc4c3c2)cn1 [Compound 42, (S)-3-methyl-2-(8-(1-propyl-1H-pyrazol-4-yl)dibenzo[b,d]thiophene-3-sulfonamido)butanoic acid]",7.8
16,"CC(C)Cn1cc(-c2ccc3c(c2)oc2ccc(S(=O)(=O)N[C@@H](C(=O)O)C(C)C)cc23)cn1 [Compound 173, (R)-2-(7-(1-isobutyl-1H-pyrazol-4-yl)dibenzo[b,d]furan-2-sulfonamido)-3-methylbutanoic acid]",80
17,"CC(C)[C@H](NS(=O)(=O)c1ccc2c(c1)oc1ccc(-c3sccc3CN(C)C)cc12)C(=O)O [Compound 49, (S)-2-(8-(3-((dimethylamino)methyl)thiophen-2-yl)dibenzo[b,d]furan-3-sulfonamido)-3-methylbutanoic acid]",228
18,"CC(C)Cc1ncc(-c2ccc3oc4cc(S(=O)(=O)N[C@H](C(=O)O)C(C)C)ccc4c3c2)s1 [Compound 248, (S)-2-(8-(2-isobutylthiazol-5-yl)dibenzo[b,d]furan-3-sulfonamido)-3-methylbutanoic acid]",< 1.5
19,"Cc1noc(C)c1-c1ccc2c(c1)oc1ccc(S(=O)(=O)N[C@@H](C(=O)O)C(C)C)cc12 [Compound 145, (R)-2-(7-(3,5-dimethylisoxazol-4-yl)dibenzo[b,d]furan-2-sulfonamido)-3-methylbutanoic acid]",29
20,"COc1ccc2nc(-c3ccc4oc5cc(S(=O)(=O)N[C@H](C(=O)O)C(C)C)ccc5c4c3)sc2c1 [Compound 208, (S)-2-(8-(6-methoxybenzo[d]thiazol-2-yl)dibenzo[b,d]furan-3-sulfonamido)-3-methylbutanoic acid]",2.7

# Second part, the compound after the results:
row,IC50 [nM],Structure (SMILES)
1,40,"CCCN(Cc1cnc(-c2ccc3oc4cc(S(=O)(=O)N[C@H](C(=O)O)C(C)C)ccc4c3c2)s1)CC1CC1 [Compound 213, (S)-2-(8-(5-(((cyclopropylmethyl)(propyl)amino)methyl)thiazol-2-yl)dibenzo[b,d]furan-3-sulfonamido)-3-methylbutanoic acid]"
2,12,"Cc1ccc2nc(-c3ccc4oc5cc(S(=O)(=O)N[C@H](C(=O)O)C(C)C)ccc5c4c3)sc2c1 [Compound 210, (S)-3-methyl-2-(8-(6-methylbenzo[d]thiazol-2-yl)dibenzo[b,d]furan-3-sulfonamido)butanoic acid]"
3,< 1.5,"CC(C)[C@H](NS(=O)(=O)c1ccc2c(c1)oc1ccc(-c3ccsc3)cc12)C(=O)O [Compound 28, (S)-3-methyl-2-(8-(thiophen-3-yl)dibenzo[b,d]furan-3-sulfonamido)butanoic acid]"
4,290,"COc1ncc(-c2ccc3c(c2)oc2ccc(S(=O)(=O)N[C@@H](C(=O)O)C(C)C)cc23)c(OC)n1 [Compound 115, (R)-2-(7-(2,4-dimethoxypyrimidin-5-yl)dibenzo[b,d]furan-2-sulfonamido)-3-methylbutanoic acid]"
5,11,"CC(C)[C@H](NS(=O)(=O)c1ccc2c(c1)oc1cc(-c3nccs3)ccc12)C(=O)O [Compound 137, (S)-3-methyl-2-(7-(thiazol-2-yl)dibenzo[b,d]furan-3-sulfonamido)butanoic acid]"
6,21,"CC(C)(C)c1nc(-c2ccc3oc4cc(S(=O)(=O)N[C@H](C(=O)O)c5ccccc5)ccc4c3c2)no1 [Compound 254, (S)-2-(8-(5-tert-butyl-1,2,4-oxadiazol-3-yl)dibenzo[b,d]furan-3-sulfonamido)-2-phenylacetic acid]"
7,65,"CC(C)[C@H](NS(=O)(=O)c1ccc2c(c1)sc1ccc(-c3cnn(Cc4ccccc4)c3)cc12)C(=O)O [Compound 44, (S)-2-(8-(1-benzyl-1H-pyrazol-4-yl)dibenzo[b,d]thiophene-3-sulfonamido)-3-methylbutanoic acid]"
8,19,"CC(C)[C@@H](NS(=O)(=O)c1ccc2oc3cc(-c4cnn(CCN5CCOCC5)c4)ccc3c2c1)C(=O)O [Compound 172, (R)-3-methyl-2-(7-(1-(2-morpholinoethyl)-1H-pyrazol-4-yl)dibenzo[b,d]furan-2-sulfonamido)butanoic acid]"
9,< 1.5,"CC(C)[C@H](NS(=O)(=O)c1ccc2c(c1)oc1ccc(-c3ccc4c(c3)OCO4)cc12)C(=O)O [Compound 308, (S)-2-(8-(benzo[d][1,3]dioxol-5-yl)dibenzo[b,d]furan-3-sulfonamido)-3-methylbutanoic acid]"
10,2.9,"CC(=O)c1ccc(-c2ccc3sc4cc(S(=O)(=O)N[C@H](C(=O)O)C(C)C)ccc4c3c2)s1 [Compound 47, (S)-2-(8-(5-acetylthiophen-2-yl)dibenzo[b,d]thiophene-3-sulfonamido)-3-methylbutanoic acid]"
11,22,"Cc1nn(C)c(C)c1-c1ccc2oc3cc(S(=O)(=O)N[C@H](C(=O)O)C(C)C)ccc3c2c1 [Compound 160, (S)-3-methyl-2-(8-(1,3,5-trimethyl-1H-pyrazol-4-yl)dibenzo[b,d]furan-3-sulfonamido)butanoic acid]"
12,4.9,"CC(C)[C@@H](NS(=O)(=O)c1ccc2oc3cc(-c4cc5ccccc5s4)ccc3c2c1)C(=O)O [Compound 100, (R)-2-(7-(benzo[b]thiophen-2-yl)dibenzo[b,d]furan-2-sulfonamido)-3-methylbutanoic acid]"
